Assay results from patent US12428401B2, “Salt of an aminopyridine derivative compound, a crystalline form thereof, and a process for preparing the same” (Yuhan Corporation, priority 2017, dated 2025).
Where “and” joins values, the source holds several entries; their conditions need not be identical. Equal values may be shown once. Where a name gives a salt, the structure may show the parent alone. Read-outs that look alike come from different tables or passages of the source.

Columns and labels:
[1] = accelerated conditions; for Content / Purity: HPLC; for Content Change / Purity Change / Water content Change: start to 6 months
Procedure: The five compounds were tested for stability under stress conditions and accelerated conditions.

[2] = Stability test under stress conditions (PXRD, DSC, appearance, HPLC); settings: for DSC onset / Water content / Content / Purity / Appearance (color) / Content Change / Purity Change / Water content Change: stress conditions; for Content / Purity: HPLC; for Content Change / Purity Change / Water content Change: start to 4 weeks
[3] = Pharmacokinetic comparison test in normal rats; assay type: in vivo, rats (SD rats)
Excerpt: (§1) Specifically, the maximum plasma concentration (Cmax) and the area under the plasma concentration curve (AUClast) in the normal rats and the rats treated with esomeprazole were compared to evaluate the absorption of the drugs in the actual animals.
(§2) In order to compare the pharmacokinetic parameters, 8-week old male rats (SD rats) with a body weight of about 250 g were used as test animals.

[4] = Pharmacokinetic comparison test in rats treated with esomeprazole; assay type: in vivo, rats (SD rats)
Excerpt: as §1, §2
A comparison of the pharmacokinetic parameters (i.e., the maximum plasma concentration and the area under the plasma concentration curve) calculated therefrom are shown in Table 7 and FIGS. 12 and 13.

[5] = Pharmacokinetic comparison test in beagle dogs; assay type: in vivo
Excerpt: A comparison of the pharmacokinetic parameters (i.e., the maximum plasma concentration and the area under the plasma concentration curve) calculated therefrom are shown in Table 8 and FIG. 14.

[6] = Rats treated with esomeprazole (i.v. 5 mg/2 mL/kg for 3 days), oral 30 mg/5 ml/kg
[7] = esomeprazole-treated vs normal rats, listed as Comparative Example 1

C=CC(=O)Nc1cc(Nc2nccc(-n3cc(CN(C)C)c(-c4ccccc4)n3)n2)c(OC)cc1N1CCOCC1.Cl [C. Ex. 2, Hydrochloride Salt of N-(5-(4-(4-((dimethylamino)methyl)-3-phenyl-1H-pyrazol-1-yl)pyrimidine-2-ylamino)-4-methoxy-2-morpholinophenyl)acrylamide]
Appearance (color) ([1]; 1 mo): Y | DSC onset ([1]; 1 mo): 272 °C | Water content ([1]; 1 mo): 0.98% | Appearance (color) ([1]; 3 mos): Y | DSC onset ([1]; 3 mos): 271 °C | Water content ([1]; 3 mos): 1.47% | DSC onset ([1]; 6 mos): 271 °C | Water content ([1]; 6 mos): 1.28% | Content ([1]; 1 mo): 97.0% | Purity ([1]; 1 mo): 99.0% | Content ([1]; 3 mos): 98.3% | Purity ([1]; 3 mos): 98.9% | Content ([1]; 6 mos): 97.6% | Purity ([1]; 6 mos): 98.8% | Purity ([1]; Start): 99.0% | Appearance (color) ([1]; Start): Y | Water content ([1]; Start): 0.86% | Content Change [1]: +0.2% | Purity Change [1]: −0.2% | Water content Change [1]: +0.42% | DSC onset ([2]; 2 weeks): 269 °C | Water content ([2]; 2 weeks): 1.23% | DSC onset ([2]; 4 weeks): 269 °C | Water content ([2]; 4 weeks): 1.44% | Content ([2]; 2 weeks): 96.2% | Purity ([2]; 2 weeks): 99.1% | Content ([2]; 4 weeks): 95.2% | Purity ([2]; 4 weeks): 99.1% | Content ([2]; Start): 97.4% | Purity ([2]; Start): 99.0% | Appearance (color) ([2]; Start): Yellow | DSC onset ([2]; Start): 267 °C | Water content ([2]; Start): 0.86% | Content Change [2]: −2.2% | Purity Change [2]: +0.1% | Water content Change [2]: +0.58%

C=CC(=O)Nc1cc(Nc2nccc(-n3cc(CN(C)C)c(-c4ccccc4)n3)n2)c(OC)cc1N1CCOCC1.O=C(O)CC(O)(CC(=O)O)C(=O)O [C. Ex. 3, Citrate Salt of N-(5-(4-(4-((dimethylamino)methyl)-3-phenyl-1H-pyrazol-1-yl)pyrimidine-2-ylamino)-4-methoxy-2-morpholinophenyl)acrylamide]
Water content ([1]; 1 mo): 0.83% | DSC onset ([1]; 3 mos): 180 °C | Water content ([1]; 3 mos): 3.05% | DSC onset ([1]; 6 mos): 183 °C | Water content ([1]; 6 mos): 3.50% | Content ([1]; 1 mo): 100.5% | Purity ([1]; 1 mo): 98.9% | Content ([1]; 3 mos): 101.0% | Purity ([1]; 3 mos): 98.9% | Content ([1]; 6 mos): 98.7% | Purity ([1]; 6 mos): 97.7% | Content ([1]; Start): 100.0% | Purity ([1]; Start): 99.2% | Water content ([1]; Start): 0.65% | Content Change [1]: −1.3% | Purity Change [1]: −1.5% | Water content Change [1]: +2.85% | DSC onset ([2]; 2 weeks): 182 °C | Water content ([2]; 2 weeks): 0.62% | DSC onset ([2]; 4 weeks): 181 °C | Water content ([2]; 4 weeks): 1.47% | Content ([2]; 2 weeks): 98.9% | Purity ([2]; 2 weeks): 98.8% | Content ([2]; 4 weeks): 98.6% | Purity ([2]; 4 weeks): 98.7% | Content ([2]; Start): 100.0% | Purity ([2]; Start): 99.2% | DSC onset ([2]; Start): 182 °C | Water content ([2]; Start): 0.65% | Content Change [2]: −1.4% | Purity Change [2]: −0.5% | Water content Change [2]: +0.82%

C=CC(=O)Nc1cc(Nc2nccc(-n3cc(CN(C)C)c(-c4ccccc4)n3)n2)c(OC)cc1N1CCOCC1.CCS(=O)(=O)O [C. Ex. 4, Esilate Salt of N-(5-(4-(4-((dimethylamino)methyl)-3-phenyl-1H-pyrazol-1-yl)pyrimidine-2-ylamino)-4-methoxy-2-morpholinophenyl)acrylamide]
DSC onset ([1]; 1 mo): 222 °C | Water content ([1]; 1 mo): 2.48% | Water content ([1]; 3 mos): 2.98% | DSC onset ([1]; 6 mos): 218 °C | Water content ([1]; 6 mos): 3.17% | Content ([1]; 1 mo): 96.1% | Purity ([1]; 1 mo): 99.1% | Content ([1]; 3 mos): 95.1% | Purity ([1]; 3 mos): 99.0% | Content ([1]; 6 mos): 91.4% | Purity ([1]; 6 mos): 98.4% | Purity ([1]; Start): 99.5% | Appearance (color) ([1]; Start): Y | Content Change [1]: −5.1% | Purity Change [1]: −1.1% | Water content Change [1]: +2.02% | DSC onset ([2]; 2 weeks): 222, ° C. and 227 °C | Water content ([2]; 2 weeks): 1.37% | Appearance (color) ([2]; 4 weeks): Violet | DSC onset ([2]; 4 weeks): 172, ° C. and 193, ° C. and 219 °C | Water content ([2]; 4 weeks): 3.81% | Content ([2]; 2 weeks): 94.7% | Purity ([2]; 2 weeks): 99.0% | Content ([2]; 4 weeks): 89.5% | Purity ([2]; 4 weeks): 98.9% | Content ([2]; Start): 96.5% | Appearance (color) ([2]; Start): Yellow | DSC onset ([2]; Start): 223 °C | Water content ([2]; Start): 1.15% | Content Change [2]: −7% | Purity Change [2]: −0.6% | Water content Change [2]: +2.03%

C=CC(=O)Nc1cc(Nc2nccc(-n3cc(CN(C)C)c(-c4ccccc4)n3)n2)c(OC)cc1N1CCOCC1 [C. Ex. 1, N-(5-(4-(4-((dimethylamino)methyl)-3-phenyl-1H-pyrazol-1-yl)pyrimidine-2-ylamino)-4-methoxy-2-morpholinophenyl)acrylamide]
Area under the plasma concentration curve lower than that of the mesylate salt form (Example 1) ([3]; normal rats): 10.4% | Maximum plasma concentration lower than that of the mesylate salt form (Example 1) ([3]; normal rats): 11.0% | Area under the plasma concentration curve (AUClast) [4, 6]: 2636.7 ng·h/mL | Maximum plasma concentration (Cmax) [4, 6]: 223.0 ng/mL | Area under the plasma concentration curve reduced in the esomeprazole-treated rats as compared with the normal rats [4, 7]: 63.8% | Maximum plasma concentration reduced in the esomeprazole-treated rats as compared with the normal rats [4, 7]: 69.3% | Area under the plasma concentration curve lower than that of the mesylate salt form (Example 1) ([4]; rats treated with esomeprazole): 49.4% | Maximum plasma concentration lower than that of the mesylate salt form (Example 1) ([4]; rats treated with esomeprazole): 47.8% | Area under the plasma concentration curve lower than that of the mesylate salt form (Example 1) [5]: 50.4% | Maximum plasma concentration lower than that of the mesylate salt form (Example 1) [5]: 40.1%

C=CC(=O)Nc1cc(Nc2nccc(-n3cc(CN(C)C)c(-c4ccccc4)n3)n2)c(OC)cc1N1CCOCC1 [Ex. 1, mesylate salt of N-(5-(4-(4-((dimethylamino)methyl)-3-phenyl-1H-pyrazol-1-yl)pyrimidine-2-ylamino)-4-methoxy-2-morpholinophenyl)acrylamide]
DSC onset ([1]; 1 mo): 214 °C | Water content ([1]; 1 mo): 2.73% | DSC onset ([1]; 3 mos): 214 °C | Water content ([1]; 3 mos): 3.19% | DSC onset ([1]; 6 mos): 214 °C | Water content ([1]; 6 mos): 3.01% | Content ([1]; 1 mo): 98.9% | Purity ([1]; 1 mo): 99.3% | Content ([1]; 3 mos): 98.9% | Purity ([1]; 3 mos): 99.3% | Content ([1]; 6 mos): 99.1% | Purity ([1]; 6 mos): 99.3% | Content ([1]; Start): 98.8% | Purity ([1]; Start): 99.2% | DSC onset ([1]; Start): 214 °C | Water content ([1]; Start): 2.48% | Content Change [1]: +0.3% | Purity Change [1]: +0.1% | Water content Change [1]: +0.53% | Stability (overall conclusion of the stability test) ([2]; stress and accelerated conditions together, purity, water content, PXRD pattern, appearance): excellent in stability | Appearance (color) ([2]; 2 weeks): White | DSC onset ([2]; 2 weeks): 214 °C | Water content ([2]; 2 weeks): 2.71% | Appearance (color) ([2]; 4 weeks): White | DSC onset ([2]; 4 weeks): 214 °C | Water content ([2]; 4 weeks): 2.70% | Content ([2]; 2 weeks): 97.7% | Purity ([2]; 2 weeks): 99.3% | Content ([2]; 4 weeks): 98.9% | Purity ([2]; 4 weeks): 99.3% | Content ([2]; Start): 98.8% | Purity ([2]; Start): 99.2% | Appearance (color) ([2]; Start): White | DSC onset ([2]; Start): 214 °C | Water content ([2]; Start): 2.48% | Content Change [2]: +0.1% | Purity Change [2]: +0.1% | Water content Change [2]: +0.22% | AUC(0-t) ([3]; male, SD, rat, plasma, 30 mg/kg, Normal rats, oral 30 mg/5 ml/kg in 0.5% methylcellulose, read-out: Area under the plasma concentration curve (AUClast)): 8140 ng·h/mL | Cmax ([3]; male, SD, rat, plasma, 30 mg/kg, Normal rats, oral 30 mg/5 ml/kg in 0.5% methylcellulose, read-out: Maximum plasma concentration (Cmax)): 816 ng/mL | AUC(0-t) ([4]; male, SD, rat, plasma, po, 30 mg/kg, Rats treated with esomeprazole (i.v. 5 mg/2 mL/kg for 3 days), oral 30 mg/5 ml/kg, read-out: Area under the plasma concentration curve (AUClast)): 5210 ng·h/mL | Cmax ([4]; male, SD, rat, plasma, po, 30 mg/kg, Rats treated with esomeprazole (i.v. 5 mg/2 mL/kg for 3 days), oral 30 mg/5 ml/kg, read-out: Maximum plasma concentration (Cmax)): 428 ng/mL | AUC(0-t) ([5]; male, dog, plasma, 5 mg/kg, oral 5 mg/2 mL/kg in 0.5% methylcellulose, read-out: Area under the plasma concentration curve (AUClast)): 812 ng·h/mL | Cmax ([5]; male, dog, plasma, 5 mg/kg, oral 5 mg/2 mL/kg in 0.5% methylcellulose, read-out: Maximum plasma concentration (Cmax)): 135 ng/mL
